# Test results from patent US20230278972A1, “SUBSTITUTED HALOALKYL SULFONANILIDE HERBICIDES” (FMC Corporation, priority 2020, published 2023).
# Legend:
# Type in all cases: in vivo
# [1] = system: barnyardgrass (Echinochloa crus-galli); assay: Test A preemergence, barnyardgrass; details: Preemergence; for Plant response rating, Barnyardgrass: 0 to 100 scale (0 no effect, 100 complete control); for Barnyardgrass plant response rating: 125 g ai/ha, visual injury on 0 to 100 scale (0 no effect, 100 complete control), approximately 10 days
# How it was run: (§1)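 Seeds are sown in loam mixed with sand and sprayed on the soil surface right after planting for the preemergence test. Postemergence pots are sprayed once seedlings reach 2 to 10 cm at the one- to two-leaf stage. The same surfactant-containing, non-phytotoxic solvent formulation serves both.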
# kochia (Bassia scoparia) [2] = assay: Test A preemergence, kochia; details: Preemergence; for Plant response rating, Kochia: 0 to 100 scale (0 no effect, 100 complete control); for Kochia plant response rating: 125 g ai/ha, visual injury on 0 to 100 scale (0 no effect, 100 complete control), approximately 10 days
# How it was run: as §1
# [3] = system: ragweed (common ragweed, Ambrosia artemisiifolia); assay: Test A preemergence, ragweed; details: Preemergence; for Plant response rating, Ragweed: 0 to 100 scale (0 no effect, 100 complete control); for Ragweed plant response rating: 125 g ai/ha, visual injury on 0 to 100 scale (0 no effect, 100 complete control), approximately 10 days
# How it was run: as §1
# [4] = system: Ryegrass, Italian (Italian ryegrass, Lolium multiflorum); assay: Test A preemergence, Ryegrass, Italian; details: Preemergence; for Plant response rating, Ryegrass, Italian: 0 to 100 scale (0 no effect, 100 complete control); for Ryegrass, Italian plant response rating: 125 g ai/ha, visual injury on 0 to 100 scale (0 no effect, 100 complete control), approximately 10 days
# How it was run: as §1
# [5] = system: Foxtail, Giant (giant foxtail, Setaria faberi); assay: Test A preemergence, Foxtail, Giant; details: Preemergence; for Plant response rating, Foxtail, Giant: 0 to 100 scale (0 no effect, 100 complete control); for Foxtail, Giant plant response rating: 125 g ai/ha, visual injury on 0 to 100 scale (0 no effect, 100 complete control), approximately 10 days
# How it was run: as §1
# [6] = system: pigweed (Amaranthus retroflexus); assay: Test A preemergence, pigweed; details: for Plant response rating, Pigweed: 0 to 100 scale (0 no effect, 100 complete control); for Pigweed plant response rating: 125 g ai/ha, visual injury on 0 to 100 scale (0 no effect, 100 complete control), approximately 10 days
# How it was run: (§2)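 Formulated with a surfactant in a non-phytotoxic solvent, compounds are applied to loam–sand pots, either to bare soil immediately after seeding (preemergence) or to seedlings of 2 to 10 cm bearing one to two leaves (postemergence).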
# [7] = system: barnyardgrass (Echinochloa crus-galli); assay: Test A postemergence, barnyardgrass; details: Postemergence
# How it was run: as §2
# kochia (Bassia scoparia) [8] = assay: Test A postemergence, kochia; details: Postemergence
# How it was run: as §1
# [9] = system: ragweed (common ragweed, Ambrosia artemisiifolia); assay: Test A postemergence, ragweed; details: Postemergence
# How it was run: as §1
# [10] = system: Ryegrass, Italian (Italian ryegrass, Lolium multiflorum); assay: Test A postemergence, Ryegrass, Italian; details: Postemergence
# How it was run: as §1
# [11] = system: Foxtail, Giant (giant foxtail, Setaria faberi); assay: Test A postemergence, Foxtail, Giant; details: Postemergence
# How it was run: as §1
# [12] = system: pigweed (Amaranthus retroflexus); assay: Test A postemergence, pigweed; details: Postemergence
# How it was run: as §1
# [13] = system: wheat (Triticum aestivum); assay: Test A postemergence, wheat; details: Postemergence
# How it was run: as §2
# corn (Zea mays) = assay: Test A postemergence, corn; details: Postemergence
# How it was run: as §1
# [14] = system: blackgrass (Alopecurus myosuroides); assay: Test A postemergence, blackgrass; details: Postemergence
# How it was run: as §1
# [15] = system: galium (catchweed bedstraw, Galium aparine); assay: Test A postemergence, galium; details: Postemergence
# How it was run: as §2
# [16] = 31 g ai/ha, visual injury, approx. 10 days
# [17] = 31 g ai/ha, visual injury on 0 to 100 scale (0 no effect, 100 complete control), approx. 10 days
# [18] = 125 g ai/ha, 0 to 100 scale (0 no effect, 100 complete control)
# [19] = 125 g ai/ha, visual injury approx. 10 days, 0 to 100 scale (0 no effect, 100 complete control)
# [20] = 500 g ai/ha, visual injury vs untreated controls after approx. 10 days, 0 to 100 scale (0 no effect, 100 complete control)
# [21] = 500 g ai/ha, visual injury, 0 to 100 scale (0 no effect, 100 complete control), approx. 10 days
smiles,measurement,setting,value
"Cc1cc(C)c(C2=NOC3(C2)CC(C)CC(C)C3)cc1NS(=O)(=O)C(F)(F)F (single isomer, unassigned) [Compound 167]","Plant response rating, Barnyardgrass",[1]; [16],0
same,Barnyardgrass plant response rating,[1],20
same,"Plant response rating, Kochia",kochia (Bassia scoparia) [2]; [16],30
same,Kochia plant response rating,kochia (Bassia scoparia) [2],40
same,"Plant response rating, Ragweed",[3]; [16],0
same,Ragweed plant response rating,[3],0
same,"Plant response rating, Ryegrass, Italian",[4]; [16],30
same,"Ryegrass, Italian plant response rating",[4],60
same,"Plant response rating, Foxtail, Giant",[5]; [16],0
same,"Foxtail, Giant plant response rating",[5],10
same,"Plant response rating, Pigweed",[6]; [16],0
same,Pigweed plant response rating,[6],20
same,"Plant response rating, Barnyardgrass",[7]; [17],10
same,"Plant response rating, Barnyardgrass",[7]; [18],60
same,"Plant response rating, Kochia",kochia (Bassia scoparia) [8]; [17],10
same,"Plant response rating, Kochia",kochia (Bassia scoparia) [8]; [18],40
same,"Plant response rating, Ragweed",[9]; [17],0
same,"Plant response rating, Ragweed",[9]; [18],20
same,"Plant response rating, Ryegrass, Italian",[10]; [17],0
same,"Plant response rating, Ryegrass, Italian",[10]; [18],20
same,"Plant response rating, Foxtail, Giant",[11]; [17],0
same,"Plant response rating, Foxtail, Giant",[11]; [18],10
same,"Plant response rating, Pigweed",[12]; [17],20
same,"Plant response rating, Pigweed",[12]; [18],70
same,"Plant response rating, Wheat",[13]; [17],0
same,"Plant response rating, Wheat",[13]; [18],30
same,"Plant response rating, Corn",corn (Zea mays); [17],0
same,"Plant response rating, Corn",corn (Zea mays); [18],10
same,"Plant response rating, Blackgrass",[14]; [17],0
same,"Plant response rating, Blackgrass",[14]; [18],20
same,"Plant response rating, Galium",[15]; [17],0
same,"Plant response rating, Galium",[15]; [18],80
Cc1cc(C)c(N(S(=O)(=O)C(F)(F)F)S(=O)(=O)C(F)(F)F)cc1C1=NOC2CCCC12 (stereo not drawn) [Compound 99],Barnyardgrass plant response rating,[1],90
same,"Plant response rating, Barnyardgrass",[1]; 500 g ai/ha,100
same,Kochia plant response rating,kochia (Bassia scoparia) [2],70
same,"Plant response rating, Kochia",kochia (Bassia scoparia) [2]; 500 g ai/ha,100
same,Ragweed plant response rating,[3],60
same,"Plant response rating, Ragweed",[3]; 500 g ai/ha,90
same,"Ryegrass, Italian plant response rating",[4],50
same,"Plant response rating, Ryegrass, Italian",[4]; 500 g ai/ha,90
same,"Foxtail, Giant plant response rating",[5],70
same,"Plant response rating, Foxtail, Giant",[5]; 500 g ai/ha,80
same,Pigweed plant response rating,[6],100
same,"Plant response rating, Pigweed",[6]; 500 g ai/ha,100
same,"Plant response rating, Barnyardgrass",[7]; [19],70
same,Barnyardgrass plant response rating,[7]; [20],90
same,"Plant response rating, Kochia",kochia (Bassia scoparia) [8]; [19],40
same,Kochia plant response rating,kochia (Bassia scoparia) [8]; [20],90
same,"Plant response rating, Ragweed",[9]; [19],40
same,Ragweed plant response rating,[9]; [20],80
same,"Plant response rating, Ryegrass, Italian",[10]; [19],0
same,"Ryegrass, Italian plant response rating",[10]; [20],60
same,"Plant response rating, Foxtail, Giant",[11]; [19],0
same,"Foxtail, Giant plant response rating",[11]; [20],10
same,"Plant response rating, Pigweed",[12]; [19],70
same,Pigweed plant response rating,[12]; [20],100
same,"Plant response rating, Wheat",[13]; [19],0
same,Wheat plant response rating,[13]; [20],50
same,"Plant response rating, Corn",corn (Zea mays); [19],0
same,Corn plant response rating,corn (Zea mays); [20],0
same,"Plant response rating, Blackgrass",[14]; [19],0
same,Blackgrass plant response rating,[14]; [20],20
same,"Plant response rating, Galium",[15]; [19],90
same,Galium plant response rating,[15]; [20],90
COc1cnn(-c2cc(N(S(=O)(=O)C(F)(F)F)S(=O)(=O)C(F)(F)F)c(C)cc2C)c(=O)c1OC [Compound 40],Barnyardgrass plant response rating,[1],90
same,"Plant response rating, Barnyardgrass",[1]; 500 g ai/ha,90
same,Kochia plant response rating,kochia (Bassia scoparia) [2],80
same,"Plant response rating, Kochia",kochia (Bassia scoparia) [2]; 500 g ai/ha,80
same,Ragweed plant response rating,[3],50
same,"Plant response rating, Ragweed",[3]; 500 g ai/ha,50
same,"Ryegrass, Italian plant response rating",[4],30
same,"Plant response rating, Ryegrass, Italian",[4]; 500 g ai/ha,80
same,"Foxtail, Giant plant response rating",[5],90
same,"Plant response rating, Foxtail, Giant",[5]; 500 g ai/ha,100
same,Pigweed plant response rating,[6],100
same,"Plant response rating, Pigweed",[6]; 500 g ai/ha,100
same,"Plant response rating, Barnyardgrass",[7]; [19],10
same,"Plant response rating, Barnyardgrass",[7]; [21],40
same,"Plant response rating, Kochia",kochia (Bassia scoparia) [8]; [19],10
same,"Plant response rating, Kochia",kochia (Bassia scoparia) [8]; [21],20
same,"Plant response rating, Ragweed",[9]; [19],40
same,"Plant response rating, Ragweed",[9]; [21],40
same,"Plant response rating, Ryegrass, Italian",[10]; [19],30
same,"Plant response rating, Ryegrass, Italian",[10]; [21],60
same,"Plant response rating, Foxtail, Giant",[11]; [19],0
same,"Plant response rating, Foxtail, Giant",[11]; [21],10
same,"Plant response rating, Pigweed",[12]; [19],0
same,"Plant response rating, Pigweed",[12]; [21],30
same,"Plant response rating, Wheat",[13]; [19],0
same,"Plant response rating, Wheat",[13]; [21],40
same,"Plant response rating, Corn",corn (Zea mays); [19],0
same,"Plant response rating, Corn",corn (Zea mays); [21],0
same,"Plant response rating, Blackgrass",[14]; [19],10
same,"Plant response rating, Blackgrass",[14]; [21],10
same,"Plant response rating, Galium",[15]; [19],20
same,"Plant response rating, Galium",[15]; [21],70
